Laboratory results published in US7696174B2, “Short bio-active peptides for cellular and immunological modulation” (Helix Biomedix, Inc., priority 2007, dated 2010).
“Also recorded” adds a separate entry of the source. Like-named read-outs stand apart in the source and are kept apart here.

Assays:
[1] = tested on: PAM 212 murine epidermal keratinocyte; test: Cell proliferation assay, PAM 212 murine epidermal keratinocytes; assay type: cell-based; settings: for cell proliferation as a percent of control cell proliferation: control = cells treated with PBS only; for cell proliferation activity (in words): epidermal keratinocytes
Procedure: To examine this question, an overlapping set of peptide fragments of HB-107 was generated using standard solid phase peptide chemistry. These peptides were then assayed for cell proliferation activity at concentrations of 0.22, 2.15, 21.5 and 46.4 μg/mL.
The cell proliferation assays proceeded from the following experimental protocol:
Cell Proliferation Assay Using a Mouse Keratinocyte Cell Line.
OBJECTIVE: To determine the anti-proliferative or cytotoxic potential of a test article when applied to epidermal keratinocytes in culture.
TEST SYSTEM: Either the murine keratinocyte cell line PAM212 or primary Normal Human Epidermal Keratinocytes (NHEK, from Clonetics) are preferred models, although other cells may be used.
Keratinocytes are examined microscopically daily. As the culture becomes 50-75% confluent, the media in the plate is aspirated and 0.25% trypsin/EDTA is added (0.05% trypsin for human cells). When the cells become rounded, the trypsin is neutralized by addition of an equal volume of DMEM or KBM supplemented with approximately 10% bovine serum or by using trypsin neutralizing solution (TNS, from Clonetics). Cells are then centrifuged and the pellet is resuspended in 1 ml of DMEM-1 or KBM. A hemacytometer is used to count the cell suspension and the total number of cells/mL is adjusted to 1.5-2.5×10^4 cells/mL with DMEM-1 or KBM. Cells are then plated in 96-well plates at a concentration of 3.0-5.0×10^3 cells/well by adding 200 μL of the cell suspension to each well. Typically, the central 60 wells are used and the outer wells are filled with DMEM or PBS to minimize evaporation effects.
A stock solution of the test article is prepared using DMEM-1 or KBM, and all other dilutions are henceforth prepared from this solution. Typically, each dilution is filtered through an 0.2-μm filter before application to the cell culture. A 1.0% (w/v or v/v) solution or suspension is prepared, and 10-fold or 3-fold serial dilutions are made in culture medium.
The cells are examined 18-24 hours after plating to ensure cell attachment and division, and then 100 μL of the media is aspirated, leaving behind 100 μL in each well. Then 100 μL of a 2× concentration of each test article dilution is added to the replicate wells. For the negative control, 100 μL of the vehicle media (DMEM-1 or KBM) is added to the control wells. The microplate is then incubated at 37 degrees C. and 5.0% CO2 for 48-72 hours after dosing, and cells are allowed to proliferate undisturbed. Following this 48-72 hour exposure, all media is aspirated and proliferation is assessed by one of the below methods.
Option A: neutral red uptake. After exposure and aspiration of media, 200 μL of neutral red media is immediately added to each well. The microplate is returned to the incubator for an additional three hours. Following this dye uptake period, the microplate is removed from the incubator and gently inverted, and the neutral red media is decanted into a collection pan. The cells are then fixed with fixing solution for approximately one minute. The fixing solution is decanted off, and the microplate is washed gently three times with washing solution. The washing solution is decanted, and 200 μL of lysing solution is added. After at least 15 minutes, the contents of each well are re-pipetted to ensure even color distribution in each well, and an aliquot is read on the spectrophotometer as detailed below.
Option B: MTT conversion assay. After exposure and aspiration of media, 200 μL of MTT assay media is immediately added to each well. […] The microplate is returned to the incubator for an additional three hours. Following this dye uptake period, the microplate is removed from the incubator and gently inverted, and the MTT media is decanted into a collection pan. The cells are then washed gently three times with washing solution. The washing solution is decanted, and 200 μL of lysing solution is added. […]

[2] = tested on: IL6 expression in epithelial cells; test: Repression of IL6 expression in resting epithelial cells; assay type: cell-based; settings: for % Change in IL6 expression / Change in IL6 versus PBS control: 20 μg/mL peptide
Description: The protocol for this assay is standard and described by Murakami et al. (2004, J. Immunol. 172:[…]), the article of which is incorporated herein by reference in its entirety.

[3] = tested on: UVB-induced IL6 expression in human skin epithelial cells (ATCC CRL-2592); test: UVB-induced IL6 expression in skin epithelial cells (ELISA); assay type: cell-based; settings: for IL6 (OD 450): UVB 35 seconds, then 40 μg/mL peptide for twenty hours, UV only 0.7305, control 0.0730
Procedure: FIG. 3: Effect of short peptides on UVB-induced IL6 expression in skin epithelial cells. Cells were exposed to UVB irradiation for 35 seconds, after which cells were incubated in complete medium (no serum) with 40 μg/mL peptide [HB-107 (SEQ ID NO:1), HB-802 (SEQ ID NO:12), HB-1410 (SEQ ID NO:15), HB-801 (SEQ ID NO:31)] for twenty hours. IL6 expression was then measured by ELISA. Refer to Example 4.
An assay was performed to determine whether peptide fragments of HB-107 can induce anti-inflammatory activity in cells exposed to ultraviolet light. Human skin epithelial cells (ATCC CRL-2592) were seeded into 6-well plates and grown to more than 95% confluence in DMEM with 4 mM L-glutamine adjusted to contain 1.5 g/L sodium bicarbonate and 4.5 g/L glucose (complete medium) supplemented with 10% fetal bovine serum. The cells were serum starved for 5 hours prior to UVB treatment. UVB was generated using a UVLMS lamp (4W model, 3UV assembly, Upland, Calif.) with the irradiation wavelength set at 302 nm. The UV lamp was placed 12 cm above the tissue culture plate (6-well plate) and two wells were treated at one time to allow homogenous UVB irradiation. Cells were exposed to UVB irradiation (450 μW/cm^2, measured using a radiometer) in PBS to avoid ultraviolet light-induced generation of toxic photochemicals. IL6 expression was measured as an indicator of cell inflammatory activity in response to UVB.
Individual peptides were screened to determine the effects thereof on UVB-induced IL6 expression in skin epithelial cells. Cells were exposed to UVB (450 μW/cm^2) for 35 seconds in PBS, after which the PBS was replaced with complete medium without serum in the presence or absence of 40 μg/ml peptide and incubated at 37 degrees C./5% CO2 for twenty hours. The supernatant media was then collected and centrifuged at 10,000 rpm to remove debris, prior to ELISA for human IL6 (CellSciences, Mass.).

[4] = tested on: human epidermal keratinocyte; test: Keratinocyte cell migration assay (tissue culture scratch test); assay type: cell-based
Description: Cell proliferation alone is not sufficient to aid in wound healing. Upon sustaining an injury, cells bordering the wound proliferate; the migration of such newly formed cells to close the injury (or chronic lesion of older, dysfunctional tissue) is of equal importance. To address this issue, HB-107 and peptide fragments thereof were examined using a keratinocyte cell migration assay based on a simple tissue culture scratch test. […] The protocol for this assay is standard and has been described by Shanley et al. (2004, Invest. Ophthalmol. Vis. Sci. 45:1088-1094), the article of which is herein incorporated by reference in its entirety.

[5] = compared with cecropin B; cited from earlier work
[6] = Lee et al., 2004; cited from earlier work
[7] = 24 hr after addition of 20 μg/mL peptide
[8] = 48 hr after addition of 20 μg/mL peptide

Substance	cell proliferation as a percent of control cell proliferation ([1]; 0.22 μg/mL peptide)	cell proliferation as a percent of control cell proliferation ([1]; 2.15 μg/mL peptide)	cell proliferation as a percent of control cell proliferation ([1]; 21.5 μg/mL peptide)	cell proliferation as a percent of control cell proliferation ([1]; 46.4 μg/mL peptide)	cell proliferation activity (in words) [1]	amount of IL6, Average [2, 7]	amount of IL6, Well 1 [2, 7]	amount of IL6, Well 2 [2, 7]	% Change in IL6 expression ([2]; 24 hr)	Change in IL6 versus PBS control ([2]; 24 hr)	amount of IL6, Average [2, 8]	amount of IL6, Well 1 [2, 8]	amount of IL6, Well 2 [2, 8]	% Change in IL6 expression ([2]; 48 hr)	Change in IL6 versus PBS control ([2]; 48 hr)	IL6 (OD 450) [3]	further results
MPKEK (listed as Hyalophora cecropia) [HB-802, fragment of HB-107]	121%	130%	135%	133%	can induce cell proliferation	283.485 pg/mL	278.32 pg/mL	288.65 pg/mL	−12.50%	−40.435	768.045 pg/mL	774.07 pg/mL	762.02 pg/mL	−21.20%	−206.99	0.6500 OD 450	IL6 reduction / anti-inflammatory activity in resting cells (in words) [2]: decrease the level of IL6 expression to the same degree as the HB-107 parent peptide; also recorded: ability to reduce IL6 in resting cells; IL6 reduction / anti-inflammatory activity in resting cells (in words) ([2]; listed as SEQ ID:12): displays both proliferative and anti-inflammatory activities
MPKEKVFLKIEKMGRNIRN (listed as Hyalophora cecropia) [HB-107, parent peptide, a fragment of cecropin B, an antimicrobial protein present in a species of moth, reference compound]	57%	75%	121%	126%		286.065 pg/mL	307.58 pg/mL	264.55 pg/mL	−11.60%	−37.435	738.35 pg/mL	690.58 pg/mL	786.12 pg/mL	−24.30%	−236.685	0.7315 OD 450	percent closure of the scratch compared to initial width ([4]; 6 hr exposure to peptide): 52%; percent closure of the scratch compared to initial width ([4]; 10 hr exposure to peptide): 78%; bacteriostatic effects (in words) [5]: does not display the bacteriostatic effects; wound healing in vivo (in words) [6]: does display epidermal wound healing qualities; also recorded: stimulate wound healing in vivo
PKEK (listed as Hyalophora cecropia) [HB-1410, fragment of HB-107]																0.5105 OD 450	reduction of UVB-induced IL6 / anti-inflammatory activity (in words) [3]: capable of significantly reducing the level of IL6; reduction of UVB-induced IL6 / anti-inflammatory activity (in words) ([3]; listed as SEQ ID NO:15): having anti-inflammatory activity
PKEKV (listed as Hyalophora cecropia) [HB-801, fragment of HB-107]	101%	100%	113%	131%	can induce cell proliferation											0.8275 OD 450	
